Measured values taken from paper PMC11045757, “Group 3 medulloblastoma transcriptional networks collapse under domain specific EP300/CBP inhibition” (Nature Communications, 2024).
“And” between values parts separate entries of the source, which are not always exact repeats. Identical values can stand only once. Like-named read-outs stand apart in the source and are kept apart here.

What was measured:
EP300 bromodomain = molecular target: T1, EP300 bromodomain (Homo sapiens, UniProt Q09472); experiment: Differential scanning fluorimetry (DSF) thermal shift; assay type: binding; conditions: DSF
T1 construct: 6xHis (cleaved yes); host or cells: E. coli BL21 (DE3) RIL
T1 sequence (Q09472 1048-1161): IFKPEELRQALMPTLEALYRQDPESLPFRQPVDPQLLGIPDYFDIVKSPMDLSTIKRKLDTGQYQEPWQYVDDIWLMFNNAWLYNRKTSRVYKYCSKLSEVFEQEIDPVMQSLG
Experimental: (§1) At OD600 of 0.6, the culture was cooled down to 18 °C and induced with 0.1 mM IPTG. After 18 h growth, the culture was harvested by centrifugation at 6000 × g for 25 min and stored at -80 °C. Harvested cell pellets were re-suspended in 50 mM Na/K phosphate buffer (pH 7.4) containing 100 mM NaCl, 40 mM imidazole, 0.01% w/v lysozyme and 0.01% v/v Triton X-100 at 4 °C for 1 h, subjected to sonication and the lysate was clarified by centrifugation (30,000 × g for 45 min at 4 °C). Proteins were purified by FPLC at 4 °C using columns and chromatography materials from GE Healthcare. […] Proteins were purified to homogeneity by size exclusion chromatography using Superdex 75 equilibrated with elution buffer (50 mM HEPES pH 7.5, 100 mM NaCl, 2 mM DTT). All BRDs eluted as monomeric protein and were of crystallization grade quality (>95% purity as judged by SDS-PAGE). Pool fractions were combined, concentrated to 10–12 mg/ml, and aliquots were flash-frozen in liquid N2 and stored at −80 °C.
(§2) DSF experiments were performed with an Applied Biosystem StepOnePlus real-time PCR system (Thermo Fisher Scientific) using 96-well format plates, assayed in quadruplicate. For thermal shift determination, 5 μM protein was mixed with 100 μM compound in 50 mM HEPES, pH 7.5, 150 mM NaCl, 2 mM DTT, 2% DMSO, 5X SYPRO Orange (Thermo Fisher Scientific) in 20 μL reaction volumes. Reaction mixtures were heated from 25 to 95 °C at 1 °C/min with fluorescence readings every 0.5 °C at 610 nm. The observed thermal shift (ΔTm) was recorded as the difference between the Tm of sample and DMSO reference wells.

BRD4-BD1 (BRD4-1) = molecular target: T2, BRD4-BD1 (BRD4-1) (Homo sapiens, UniProt O60885); experiment: as above; assay type: binding; conditions: DSF
T2 construct: BRD4-BD1 (residues 44-168); 6xHis (cleaved yes); host or cells: E. coli BL21 (DE3) RIL
Experimental: as §1, §2

[1] = molecular target: GFP-tagged CBP bromodomain (Homo sapiens, UniProt Q92793); experiment: Microscale thermophoresis (MST); assay type: binding
Experimental: MST experiments were performed in a Monolith NT.115 Pico instrument (NanoTemper Technologies) following published procedures. […] MST traces were recorded using standard parameters: 5 s MST power off, 30 s MST power on and 5 s MST power off. Measurements were taken at -1-0 s (cold region) and 10 s (hot region) and data were analyzed using the NTAnalysis software.

[2] = system: HDMB03 (HDMBO3) group 3 medulloblastoma cells; experiment: CellTiter-Glo dose-response growth assay; assay type: cell-based; conditions: Homo sapiens, HD-MB03; HDMBO3 G3MB cell growth; read-out: IC50 (nM) HDMBO3
Experimental: CellTiter-Glo assay was performed as per the manufacturer’s instructions, at the noted timepoint after compound treatment or plating. For Kelly, TE617T, RhJT, NCIH2122, NCIH650 and 143B, 500 cells were plated in normal growth media per well in a 384-well plate (Corning). HDMB03 and MB002 cells were plated in growth media at 500 cells/well in a 384-well plate. […] Cells were incubated for the noted timepoints prior to performing CellTiter-Glo assay as per the manufacturer’s instructions, and reading plates on an Envision 2104 microplate reader.

CBP bromodomain [3] = molecular target: T3, CBP bromodomain (Homo sapiens, UniProt Q92793); experiment: Differential scanning fluorimetry (DSF) thermal shift; assay type: binding
T3 construct: CBP (residues 1081-1197); 6xHis (cleaved yes); host or cells: E. coli BL21 (DE3) RIL
Experimental: as §1, with “After” for “At OD600 of 0.6, the culture was cooled down to 18 °C and induced with 0.1 mM IPTG. After”, “All BRDs eluted as monomeric protein and were of crystallization grade quality (>95% purity as judged by SDS-PAGE).” left out
(§3) DSF experiments were performed with an Applied Biosystem StepOnePlus real-time PCR system (Thermo Fisher Scientific) using 96-well format plates, assayed in quadruplicate. For thermal shift determination, 5 μM protein was mixed with 100 μM compound in 50 mM HEPES, pH 7.5, 150 mM NaCl, 2 mM DTT, 2% DMSO, 5X SYPRO Orange (Thermo Fisher Scientific) in 20 μL reaction volumes.

CBP bromodomain [4] = experiment: as above; assay type: binding; conditions: ΔTm (CBP)/ΔTm(BRD4)
Experimental: as §1, with “After” for “At OD600 of 0.6, the culture was cooled down to 18 °C and induced with 0.1 mM IPTG. After”, “All BRDs eluted as monomeric protein and were of crystallization grade quality (>95% purity as judged by SDS-PAGE).” left out
as §3

[5] = 5 μM protein, 100 μM compound, three independent experiments, average ± SD

Chain of GFP-tagged CBP bromodomain (Q92793 1085-1192 limits assumed): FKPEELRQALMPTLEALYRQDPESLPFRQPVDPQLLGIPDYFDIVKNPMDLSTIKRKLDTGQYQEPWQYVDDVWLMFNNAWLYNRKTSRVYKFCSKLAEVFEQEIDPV
T3 sequence (Q92793 1081-1197): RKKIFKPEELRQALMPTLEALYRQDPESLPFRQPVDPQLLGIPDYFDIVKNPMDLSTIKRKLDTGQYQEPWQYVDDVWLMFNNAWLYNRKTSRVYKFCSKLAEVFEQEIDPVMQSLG

COC1CCC(n2c(C3CCCC(=O)N3c3cc(C(F)(F)F)cc(C(F)(F)F)c3)nc3cc(-c4c(C)noc4C)ccc32)CC1 (stereo not drawn) [Compound 4]
∆Tm (°C) EP300 (EP300 bromodomain; [5]): 9.2 ± 1.5 °C | ΔTm (°C) EP300 (EP300 bromodomain; Figure 3B, EP300): 9.2 °C | ∆Tm (°C) BRD4-1 (BRD4-BD1 (BRD4-1); [5]): 2.1 ± 0.96 °C | ΔTm (°C) BRD4-BD1 (BRD4-BD1 (BRD4-1); Figure 3A, BRD4-BD1): 2.1 °C | Kd ([1]; Figure 3C, MST, read-out: MST Kd): 116 nM | Response (Dose Response Curve) ([1]; MST raw response, Dose 1.52588e-10, single replicate run, listed as iCBP-4): 892.093 and 891.258 and 891.615 | Response (Dose Response Curve (Outliers)) ([1]; MST raw response, Dose 3.05176e-10, point marked as outlier and left out of the fit): 895.82 | Response (Dose Response Curve) ([1]; MST raw response, Dose 3.05176e-10, single replicate run, listed as iCBP-4): 892.272 and 892.058 | Response (Dose Response Curve) ([1]; MST raw response, Dose 6.10352e-10, single replicate run, listed as iCBP-4): 892.269 and 892.744 and 892.22 | Response (Dose Response Curve) ([1]; MST raw response, Dose 1.2207e-9, single replicate run, listed as iCBP-4): 892.399 and 891.675 and 892.288 | Response (Dose Response Curve) ([1]; MST raw response, Dose 2.44141e-9, single replicate run, listed as iCBP-4): 891.725 and 891.585 and 891.994 | Response (Dose Response Curve) ([1]; MST raw response, Dose 4.88281e-9, single replicate run, listed as iCBP-4): 891.567 and 892.575 and 891.165 | Response (Dose Response Curve) ([1]; MST raw response, Dose 9.76563e-9, single replicate run, listed as iCBP-4): 891.493 and 891.567 and 891.238 | Response (Dose Response Curve) ([1]; MST raw response, Dose 1.95313e-8, single replicate run, listed as iCBP-4): 891.688 and 891.424 and 891.76 | Response (Dose Response Curve) ([1]; MST raw response, Dose 3.90625e-8, single replicate run, listed as iCBP-4): 892.161 and 891.262 and 889.541 | Response (Dose Response Curve) ([1]; MST raw response, Dose 7.8125e-8, single replicate run, listed as iCBP-4): 890.263 and 890.555 and 890.434 | Response (Dose Response Curve) ([1]; MST raw response, Dose 1.5625e-7, single replicate run, listed as iCBP-4): 890.147 and 890.553 and 889.395 | Response (Dose Response Curve) ([1]; MST raw response, Dose 3.125e-7, single replicate run, listed as iCBP-4): 888.926 and 888.984 and 889.107 | Response (Dose Response Curve) ([1]; MST raw response, Dose 6.25e-7, single replicate run, listed as iCBP-4): 888.767 and 888.447 and 889.182 | Response (Dose Response Curve) ([1]; MST raw response, Dose 1.25e-6, single replicate run, listed as iCBP-4): 887.998 and 889.672 and 887.288 | Response (Dose Response Curve) ([1]; MST raw response, Dose 2.5e-6, single replicate run, listed as iCBP-4): 887.993 and 886.376 and 888.472 | Response (Dose Response Curve) ([1]; MST raw response, Dose 5e-6, single replicate run, listed as iCBP-4): 887.809 and 888.569 and 888.97 | Kd ([1]; MST, single replicate run, target clGFP-CBPBRD, TargetConcentration 5e-8, MST-Power Medium, unit inferred, read-out: Kd (Fit Results, Fit Model: Kd)): 142 nM and 167 nM and 39.1 nM | Bound (Fit Results) ([1]; fitted MST response of bound state, single replicate run, target clGFP-CBPBRD 5e-8, listed as iCBP-4): 887.684 and 887.776 and 888.434 | Unbound (Fit Results) ([1]; fitted MST response of unbound state, single replicate run, target clGFP-CBPBRD 5e-8, listed as iCBP-4): 892.098 and 891.946 and 891.879 | loss of binding affinity (CBP) ([1]; relative to CCS1477): ~ 40 fold | Kd ([1]; three independent MST experiments, average ± SD, read-out: Kd (nM) CBP): 116 ± 68 nM | IC50 [2]: 271 ± 62 nM | ∆Tm (°C) CBP (CBP bromodomain [3]; DSF, 5 μM protein, 100 μM compound, three independent experiments, average ± SD): 9.9 ± 1.02 °C | ΔTm (°C) CBP (CBP bromodomain [3]; Figure 3A, DSF, CBP bromodomain): 9.9 °C | ΔTm (°C) CBP (CBP bromodomain [3]; Figure 3B, DSF, CBP): 9.9 °C | DSF ΔTm (°C) (CBP bromodomain [3]; Figure 3C, DSF (values equal CBP column)): 9.9 °C | Ratio CBP/BRD4 of ∆Tm (CBP bromodomain [4]): 4.7
